# In US12312473B2, “Composition, film, near-infrared cut filter, pattern forming method, laminate, solid-state imaging element, infrared sensor, image display device, camera module, and compound” (FUJIFILM Corporation, priority 2019, dated 2025):
# Test: Solubility of coloring agent in PGMEA
# Assay type: physicochemical
# Settings: propylene glycol methyl ether acetate (PGMEA), organic solvent or mixture, thermodynamic from solid, approx. 100 mg in 1 L propylene glycol methyl ether acetate at 25° C., stirred 30 minutes
# Method: In the present disclosure, the solubility of the coloring agent having a structure represented by Formula (1) (that is, the specific coloring agent) is measured and obtained by the following method.
# Under atmospheric pressure, approximately 100 mg (precisely weighed value is X mg) of the coloring agent having a structure represented by Formula (1) is added to 1 L of propylene glycol methyl ether acetate at 25° C., and the mixture is stirred for 30 minutes, allowed to stand for 5 minutes, and filtered. Thereafter, the filtrate is dried under reduced pressure at 80° C. for 2 hours and precisely weighed (precisely weighed value is Y mg), and the solubility of the specific coloring agent dissolved in propylene glycol methyl ether acetate is calculated from the following expression. PGMEA solubility (mg/L) of specific coloring agent=X—Y
# Under atmospheric pressure, approximately 100 mg of the dispersion liquid of the coloring agents shown in Tables 1 to 4 (value of the coloring agents shown Tables 1 to 4 precisely weighed is defined as X mg) was added to 1 L of propylene glycol methyl ether acetate at 25° C., and the mixture was stirred for 30 minutes. Next, the mixture was allowed to stand for 5 minutes and filtered, and the filtrate was dried under reduced pressure at 80° C. for 2 hours and weighed precisely (value of the filtrate precisely weighed is defined as Y mg). Solubility of the coloring agents shown in Tables 1 to 4 dissolved in propylene glycol methyl ether acetate was calculated from the following expression.
row,SMILES,solubility at 30 min [µg/mL]
1,O=C1C(c2ccc3cccc4c3c2NC2(N4)c3ccccc3-c3ccc(OC(=O)c4ccc(C(=O)Oc5ccc6c(c5)C5(N=c7/c(=C8/C(=O)C(c9ccc%10cccc%11c%10c9NC9(N%11)c%10ccccc%10-c%10ccccc%109)=C8O)ccc8cccc(c78)N5)c5ccccc5-6)cc4)cc32)=C(O)/C1=c1/ccc2cccc3c2c1=NC1(N3)c2ccccc2-c2ccccc21 (centres unmarked) [A-sq-1],< 10
2,CC(=O)Nc1cc2c(cc1C1=C([O-])/C(=c3/cc4c(cc3NC(=O)c3ccc(C(=O)Nc5cc6c(cc5C5=C([O-])/C(=c7/cc8c(cc7NC(C)=O)=[N+](C)C(C)C8(C)C)C5=O)C(C)(C)C(C)N6C)cc3)=[N+](C)C(C)C4(C)C)C1=O)C(C)(C)C(C)N2C (centres unmarked) [A-sq-3],< 10
3,O=C1C(c2ccc3cccc4c3c2NB(c2ccc(-c3ccc(B5Nc6cccc7ccc(C8=C(O)/C(=c9/ccc%10cccc%11c%10c9=NB(c9ccccc9)N%11)C8=O)c(c67)N5)cc3)cc2)N4)=C(O)/C1=c1/ccc2cccc3c2c1=NB(c1ccccc1)N3 [A-sq-5],< 10
4,O=C1C(=O)/C(=C2/C=CC(=[N+]3CCC(C(=O)Oc4ccc(OC(=O)C5CC[N+](=C6C=C/C(=C7/C(=O)C(=O)C(c8ccc(N9CCC(C(=O)O)CC9)s8)=C7[O-])S6)CC5)cc4)CC3)S2)C([O-])=C1c1ccc(N2CCC(C(=O)O)CC2)s1 (centres unmarked) [A-cr-1],50 to 100
5,"O=C1C(c2ccc3cccc4c3c2NC2(N4)c3ccccc3-c3ccccc32)=C(O)C1C1C=Cc2cccc3c2C1=NC1(N3)c2ccccc2-c2ccccc21 (centres unmarked) [compound 3, reference compound]",< 10
